In patent US8802597B2, “Herbicidal pyrimidines” (E I du Pont de Nemours and Company, priority 2003, dated 2014):

What was measured:
Type in all cases: in vivo
[1] = system: Surinam grass (Brachiaria decumbens); experiment: Test C pre/postemergence; details: Postemergence
Text: (§1) Seeds or nutlets of plant species selected from bermudagrass (Cynodon dactylon), Surinam grass (Brachiaria decumbens), cocklebur (Xanthium strumarium), corn (Zea mays), crabgrass (Digitaria sanguinalis), woolly cupgrass (Eriochloa villosa), giant foxtail (Setaria faberii), goosegrass (Eleusine indica), johnsongrass (Sorghum halepense), kochia (Kochia scoparia), lambsquarters (Chenopodium album), morningglory (Ipomoea coccinea), eastern black nightshade (Solanum ptycanthum), yellow nutsedge (Cyperus esculentus), pigweed (Amaranthus retroflexus), common ragweed (Ambrosia elatior), soybean (Glycine max), common (oilseed) sunflower (Helianthus annuus), and velvetleaf (Abutilon theophrasti) were planted and treated preemergence with test chemicals formulated in a non-phytotoxic solvent mixture which included a surfactant.
(§2) At the same time, plants selected from these crop and weed species and also winter barley (Hordeum vulgare), blackgrass (Alopecurus myosuroides), canarygrass (Phalaris minor), chickweed (Stellaria media), downy brome (Bromus tectorum), green foxtail (Setaria viridis), Italian ryegrass (Lolium multiflorum), wheat (Triticum aestivum), wild oat (Avena fatua) and windgrass (Apera spica-venti) were treated with postemergence applications of some of the test chemicals formulated in the same manner. Plants ranged in height from 2 to 18 cm (1- to 4-leaf stage) for postemergence treatments. Plant species in the flooded paddy test consisted of rice (Oryza sativa), umbrella sedge (Cyperus difformis), duck salad (Heteranthera limosa) and barnyardgrass (Echinochloa crus-galli) grown to the 2-leaf stage for testing. Treated plants and controls were maintained in a greenhouse for 12 to 14 days, after which time all species were compared to controls and visually evaluated. Plant response ratings, summarized in Table C, are based on a scale of 0 to 100 where 0 is no effect and 100 is complete control. A dash (-) response means no test result.

[2] = system: common ragweed (Ambrosia elatior); experiment: Test C pre/postemergence; details: Postemergence
Text: as §1, §2

[3] = system: giant foxtail (Setaria faberii); experiment: Test C pre/postemergence; details: Postemergence
Text: as §1, §2

[4] = system: johnsongrass (Sorghum halepense); experiment: Test C pre/postemergence; details: Postemergence
Text: as §1, §2

[5] = system: kochia (Kochia scoparia); experiment: Test C pre/postemergence; details: Postemergence
Text: as §1, §2

[6] = system: morningglory (Ipomoea coccinea); experiment: Test C pre/postemergence; details: Postemergence
Text: as §1, §2

[7] = system: pigweed (Amaranthus retroflexus); experiment: Test C pre/postemergence; details: Postemergence
Text: as §1, §2

[8] = system: soybean (Glycine max); experiment: Test C pre/postemergence; details: Postemergence
Text: as §1, §2

[9] = system: woolly cupgrass (Eriochloa villosa); experiment: Test C pre/postemergence; details: Postemergence
Text: as §1, §2

[10] = system: yellow nutsedge (Cyperus esculentus); experiment: Test C pre/postemergence; details: Postemergence
Text: as §1, §2

[11] = system: chickweed (Stellaria media); experiment: Test C postemergence
Text: as §1, §2

[12] = 125 g ai/ha, scale 0 to 100 (0 no effect, 100 complete control)

Nc1nc(-c2ccc(Br)cc2)nc(C(=O)O)c1Br [Compound 136]
Plant response rating (scale of 0 to 100), Surinam Grass ([1]; 16 g ai/ha): 55
Plant response rating (scale of 0 to 100), Surinam Grass ([1]; 31 g ai/ha): 65
Plant response rating (scale of 0 to 100), Surinam Grass ([1]; 62 g ai/ha): 65
Surinam Grass plant response rating [1, 12]: 70
Plant response rating (scale of 0 to 100), Ragweed ([2]; 16 g ai/ha): 75
Plant response rating (scale of 0 to 100), Ragweed ([2]; 31 g ai/ha): 85
Plant response rating (scale of 0 to 100), Ragweed ([2]; 62 g ai/ha): 90
Ragweed plant response rating [2, 12]: 95
Plant response rating (scale of 0 to 100), Foxtail, Giant ([3]; 16 g ai/ha): 65
Plant response rating (scale of 0 to 100), Foxtail, Giant ([3]; 31 g ai/ha): 75
Plant response rating (scale of 0 to 100), Foxtail, Giant ([3]; 62 g ai/ha): 75
Foxtail, Giant plant response rating [3, 12]: 85
Plant response rating (scale of 0 to 100), Johnsongrass ([4]; 16 g ai/ha): 60
Plant response rating (scale of 0 to 100), Johnsongrass ([4]; 31 g ai/ha): 85
Plant response rating (scale of 0 to 100), Johnsongrass ([4]; 62 g ai/ha): 85
Johnsongrass plant response rating [4, 12]: 95
Plant response rating (scale of 0 to 100), Kochia ([5]; 16 g ai/ha): 75
Plant response rating (scale of 0 to 100), Kochia ([5]; 31 g ai/ha): 80
Plant response rating (scale of 0 to 100), Kochia ([5]; 62 g ai/ha): 90
Kochia plant response rating [5, 12]: 90
Plant response rating (scale of 0 to 100), Morningglory ([6]; 16 g ai/ha): 65
Plant response rating (scale of 0 to 100), Morningglory ([6]; 31 g ai/ha): 85
Plant response rating (scale of 0 to 100), Morningglory ([6]; 62 g ai/ha): 90
Morningglory plant response rating [6, 12]: 100
Plant response rating (scale of 0 to 100), Pigweed ([7]; 16 g ai/ha): 90
Plant response rating (scale of 0 to 100), Pigweed ([7]; 31 g ai/ha): 100
Plant response rating (scale of 0 to 100), Pigweed ([7]; 62 g ai/ha): 100
Pigweed plant response rating [7, 12]: 100
Plant response rating (scale of 0 to 100), Soybean ([8]; 16 g ai/ha): 95
Plant response rating (scale of 0 to 100), Soybean ([8]; 31 g ai/ha): 100
Plant response rating (scale of 0 to 100), Soybean ([8]; 62 g ai/ha): 100
Soybean plant response rating [8, 12]: 100
Plant response rating (scale of 0 to 100), Cupgrass, Woolly ([9]; 16 g ai/ha): 55
Plant response rating (scale of 0 to 100), Cupgrass, Woolly ([9]; 31 g ai/ha): 65
Plant response rating (scale of 0 to 100), Cupgrass, Woolly ([9]; 62 g ai/ha): 70
Cupgrass, Woolly plant response rating [9, 12]: 70
Plant response rating (scale of 0 to 100), Nutsedge, Yellow ([10]; 16 g ai/ha): 60
Plant response rating (scale of 0 to 100), Nutsedge, Yellow ([10]; 31 g ai/ha): 65
Plant response rating (scale of 0 to 100), Nutsedge, Yellow ([10]; 62 g ai/ha): 75
Nutsedge, Yellow plant response rating [10, 12]: 75
Plant response rating (scale of 0 to 100), Chickweed ([11]; 16 g ai/ha): 45
Plant response rating (scale of 0 to 100), Chickweed ([11]; 31 g ai/ha): 50
Plant response rating (scale of 0 to 100), Chickweed ([11]; 62 g ai/ha): 50
Chickweed plant response rating [11, 12]: 50
